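Protocol summary: plate cells (96-well), add compound at 5 concentrations, incubate 48 h, interpolate endpoints linearly. Here, GI50 denotes the concentration required for 50% inhibition of growth. TGI denotes the concentration required for complete inhibition of growth.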
Experiments:
Assay in all cases: DTP human tumour cell line panel, 48 h; in the data active means GI50 below about 0.43 µM; inactive means the rest
SNB-75 CNS = system: SNB-75 CNS
SF-268 CNS = system: SF-268 CNS
KM12 colon = system: KM12 colon
COLO 205 colon = system: COLO 205 colon
UO-31 renal = system: UO-31 renal
SK-MEL-28 melanoma = system: SK-MEL-28 melanoma
TK-10 renal = system: TK-10 renal
NCI-H226 lung = system: NCI-H226 lung
HS 578T breast = system: HS 578T breast
UACC-62 melanoma = system: UACC-62 melanoma
ACHN renal = system: ACHN renal
OVCAR-3 ovarian = system: OVCAR-3 ovarian
SN12C renal = system: SN12C renal
HCT-116 colon = system: HCT-116 colon
SW-620 colon = system: SW-620 colon
K-562 leukemia = system: K-562 leukemia
MDA-MB-231 breast = system: MDA-MB-231 breast
IGROV1 ovarian = system: IGROV1 ovarian
MALME-3M melanoma = system: MALME-3M melanoma
SK-OV-3 ovarian = system: SK-OV-3 ovarian
NCI-H23 lung = system: NCI-H23 lung
MCF7 breast = system: MCF7 breast
NCI-H522 lung = system: NCI-H522 lung
UACC-257 melanoma = system: UACC-257 melanoma
NCI-H460 lung = system: NCI-H460 lung
M14 melanoma = system: M14 melanoma
U251 CNS = system: U251 CNS
RPMI-8226 leukemia = system: RPMI-8226 leukemia
SK-MEL-2 melanoma = system: SK-MEL-2 melanoma
HOP-92 NSCLC = system: HOP-92 NSCLC
SNB-19 CNS = system: SNB-19 CNS
PC-3 prostate = system: PC-3 prostate
NCI/ADR-RES ovarian = system: NCI/ADR-RES ovarian
CCRF-CEM leukemia = system: CCRF-CEM leukemia
MDA-MB-435 = system: MDA-MB-435
SF-295 CNS = system: SF-295 CNS
HT29 colon = system: HT29 colon
786-0 renal = system: 786-0 renal
CAKI-1 renal = system: CAKI-1 renal
A498 renal = system: A498 renal
OVCAR-4 ovarian = system: OVCAR-4 ovarian
HOP-62 NSCLC = system: HOP-62 NSCLC
HCC-2998 colon = system: HCC-2998 colon
OVCAR-8 ovarian = system: OVCAR-8 ovarian
DU-145 prostate = system: DU-145 prostate
HCT-15 colon = system: HCT-15 colon
LOX IMVI melanoma = system: LOX IMVI melanoma
T-47D breast = system: T-47D breast
SF-539 CNS = system: SF-539 CNS
OVCAR-5 ovarian = system: OVCAR-5 ovarian
A549 NSCLC = system: A549 NSCLC
EKVX NSCLC = system: EKVX NSCLC
SK-MEL-5 melanoma = system: SK-MEL-5 melanoma
SR leukemia = system: SR leukemia
BT-549 breast = system: BT-549 breast
MOLT-4 leukemia = system: MOLT-4 leukemia
HL-60(TB) leukemia = system: HL-60(TB) leukemia
RXF 393 renal = system: RXF 393 renal

C=CC1CC1(CO)COc1cc(Cl)nc(N)n1 (configuration not stated)
inactive: GI50 (SNB-75 CNS) 86.4 µM

O=C(COc1ccc(/C=C2\CSc3ccccc3C2=O)cc1)Nc1nccs1
31.4 µM: TGI (MALME-3M melanoma)
29.7 µM: TGI (SF-539 CNS)
4.25 µM: TGI (OVCAR-3 ovarian)
14.7 µM: TGI (HCT-116 colon) | TGI (HCT-15 colon)
25.1 µM: TGI (UACC-257 melanoma) | TGI (SNB-75 CNS)
27.7 µM: TGI (TK-10 renal)
4.17 µM: TGI (NCI-H522 lung)
> 100 µM: TGI (K-562 leukemia)
2.67 µM: TGI (IGROV1 ovarian)
19 µM: TGI (UACC-62 melanoma)
6.73 µM: TGI (UO-31 renal)
25.6 µM: TGI (SF-295 CNS)
32.5 µM: TGI (NCI-H226 lung)
10.6 µM: TGI (MCF7 breast)
24.3 µM: TGI (NCI-H23 lung)
32.8 µM: TGI (OVCAR-8 ovarian) | TGI (OVCAR-5 ovarian)
29.8 µM: TGI (SN12C renal)
72.3 µM: TGI (OVCAR-4 ovarian)
30.8 µM: TGI (HOP-62 NSCLC)
6.7 µM: TGI (RPMI-8226 leukemia)
9.46 µM: TGI (HOP-92 NSCLC)
16.2 µM: TGI (HT29 colon)
inactive: GI50 (SF-268 CNS) 3.61 µM | GI50 (KM12 colon) 2.96 µM | GI50 (COLO 205 colon) 14.1 µM | GI50 (UO-31 renal) 2.24 µM | GI50 (SK-MEL-28 melanoma) 11.8 µM | GI50 (TK-10 renal) 10.6 µM | GI50 (NCI-H226 lung) 15.6 µM | GI50 (HS 578T breast) 4.29 µM | GI50 (UACC-62 melanoma) 5.32 µM | GI50 (ACHN renal) 13.5 µM | GI50 (OVCAR-3 ovarian) 2.17 µM | GI50 (SN12C renal) 5.8 µM | GI50 (HCT-116 colon) 4.32 µM | GI50 (SW-620 colon) 2.7 µM | GI50 (K-562 leukemia) 3.11 µM | GI50 (MDA-MB-231 breast) 14.4 µM | GI50 (IGROV1 ovarian) 1.38 µM | GI50 (MALME-3M melanoma) 15 µM | GI50 (SK-OV-3 ovarian) 22.2 µM | GI50 (NCI-H23 lung) 11.7 µM | GI50 (MCF7 breast) 3.43 µM | GI50 (NCI-H522 lung) 1.92 µM | GI50 (UACC-257 melanoma) 12.6 µM | GI50 (NCI-H460 lung) 15.9 µM | GI50 (M14 melanoma) 9.38 µM | GI50 (U251 CNS) 6.93 µM | GI50 (SNB-75 CNS) 11.5 µM | GI50 (RPMI-8226 leukemia) 2.13 µM | GI50 (SK-MEL-2 melanoma) 11.3 µM | GI50 (SNB-19 CNS) 13.4 µM | GI50 (PC-3 prostate) 3.97 µM | GI50 (NCI/ADR-RES ovarian) 21.4 µM | GI50 (CCRF-CEM leukemia) 2.01 µM | GI50 (MDA-MB-435) 3.31 µM | GI50 (SF-295 CNS) 11.8 µM | GI50 (HT29 colon) 4.48 µM | GI50 (786-0 renal) 14 µM | GI50 (CAKI-1 renal) 12.8 µM | GI50 (A498 renal) 15.8 µM | GI50 (OVCAR-4 ovarian) 18.9 µM | GI50 (HOP-62 NSCLC) 16.3 µM | GI50 (HCC-2998 colon) 4.03 µM | GI50 (OVCAR-8 ovarian) 7.76 µM | GI50 (DU-145 prostate) 4.2 µM | GI50 (HCT-15 colon) 4.03 µM | GI50 (LOX IMVI melanoma) 1.77 µM | GI50 (T-47D breast) 13.5 µM | GI50 (SF-539 CNS) 15 µM | GI50 (OVCAR-5 ovarian) 18.2 µM | GI50 (A549 NSCLC) 15.3 µM | GI50 (EKVX NSCLC) 17.3 µM | GI50 (SK-MEL-5 melanoma) 11.5 µM
21.2 µM: TGI (M14 melanoma)
31.9 µM: TGI (NCI-H460 lung)
3.41 µM: TGI (LOX IMVI melanoma)
25.3 µM: TGI (CAKI-1 renal)
66.5 µM: TGI (NCI/ADR-RES ovarian)
37.2 µM: TGI (HS 578T breast)
17.1 µM: TGI (HCC-2998 colon)
8.99 µM: TGI (KM12 colon)
23.6 µM: TGI (SK-MEL-5 melanoma)
26.2 µM: TGI (SNB-19 CNS)
14.3 µM: TGI (DU-145 prostate)
27.1 µM: TGI (COLO 205 colon)
19.5 µM: TGI (U251 CNS)
31.1 µM: TGI (EKVX NSCLC)
42.2 µM: TGI (SK-OV-3 ovarian)
active: GI50 (HOP-92 NSCLC) 0.026 µM
29.2 µM: TGI (A498 renal)
23.3 µM: TGI (SK-MEL-2 melanoma)
35 µM: TGI (MDA-MB-231 breast)
28.5 µM: TGI (A549 NSCLC)
27 µM: TGI (786-0 renal)
26.4 µM: TGI (ACHN renal)
28.9 µM: TGI (PC-3 prostate)
42.4 µM: TGI (T-47D breast)
9.09 µM: TGI (CCRF-CEM leukemia)
15.1 µM: TGI (MDA-MB-435)
13.6 µM: TGI (SF-268 CNS)
7.12 µM: TGI (SW-620 colon)
24.1 µM: TGI (SK-MEL-28 melanoma)

COc1ccc(-c2c[nH]c(=S)n2-c2ccc(OC)cc2)cc1
inactive: GI50 (SF-268 CNS) > 50 µM | GI50 (KM12 colon) > 50 µM | GI50 (SR leukemia) > 50 µM | GI50 (COLO 205 colon) > 50 µM | GI50 (UO-31 renal) > 50 µM | GI50 (SK-MEL-28 melanoma) > 50 µM | GI50 (TK-10 renal) > 50 µM | GI50 (NCI-H226 lung) > 50 µM | GI50 (HS 578T breast) > 50 µM | GI50 (UACC-62 melanoma) > 50 µM | GI50 (ACHN renal) > 50 µM | GI50 (OVCAR-3 ovarian) > 50 µM | GI50 (SN12C renal) > 50 µM | GI50 (HCT-116 colon) > 50 µM | GI50 (SW-620 colon) > 50 µM | GI50 (K-562 leukemia) > 50 µM | GI50 (MDA-MB-231 breast) > 50 µM | GI50 (IGROV1 ovarian) > 50 µM | GI50 (NCI-H23 lung) > 50 µM | GI50 (MCF7 breast) > 50 µM | GI50 (NCI-H522 lung) > 50 µM | GI50 (UACC-257 melanoma) > 50 µM | GI50 (NCI-H460 lung) > 50 µM | GI50 (U251 CNS) > 50 µM | GI50 (SNB-75 CNS) > 50 µM | GI50 (RPMI-8226 leukemia) 20.4 µM | GI50 (SK-MEL-2 melanoma) > 50 µM | GI50 (SNB-19 CNS) > 50 µM | GI50 (PC-3 prostate) > 50 µM | GI50 (NCI/ADR-RES ovarian) > 50 µM | GI50 (BT-549 breast) > 50 µM | GI50 (MDA-MB-435) > 50 µM | GI50 (SF-295 CNS) > 50 µM | GI50 (HT29 colon) > 50 µM | GI50 (786-0 renal) > 50 µM | GI50 (CAKI-1 renal) > 50 µM | GI50 (A498 renal) > 50 µM | GI50 (MOLT-4 leukemia) > 50 µM | GI50 (HOP-62 NSCLC) > 50 µM | GI50 (OVCAR-8 ovarian) > 50 µM | GI50 (DU-145 prostate) > 50 µM | GI50 (HCT-15 colon) > 50 µM | GI50 (LOX IMVI melanoma) > 50 µM | GI50 (HL-60(TB) leukemia) > 50 µM | GI50 (RXF 393 renal) > 50 µM | GI50 (SF-539 CNS) > 50 µM | GI50 (OVCAR-5 ovarian) > 50 µM | GI50 (A549 NSCLC) > 50 µM | GI50 (EKVX NSCLC) > 50 µM | GI50 (SK-MEL-5 melanoma) > 50 µM
> 50 µM: TGI (SF-268 CNS) | TGI (KM12 colon) | TGI (SR leukemia) | TGI (COLO 205 colon) | TGI (UO-31 renal) | TGI (SK-MEL-28 melanoma) | TGI (TK-10 renal) | TGI (NCI-H226 lung) | TGI (HS 578T breast) | TGI (UACC-62 melanoma) | TGI (ACHN renal) | TGI (OVCAR-3 ovarian) | TGI (SN12C renal) | TGI (HCT-116 colon) | TGI (SW-620 colon) | TGI (K-562 leukemia) | TGI (MDA-MB-231 breast) | TGI (IGROV1 ovarian) | TGI (NCI-H23 lung) | TGI (MCF7 breast) | TGI (NCI-H522 lung) | TGI (UACC-257 melanoma) | TGI (NCI-H460 lung) | TGI (U251 CNS) | TGI (SNB-75 CNS) | TGI (RPMI-8226 leukemia) | TGI (SK-MEL-2 melanoma) | TGI (SNB-19 CNS) | TGI (PC-3 prostate) | TGI (NCI/ADR-RES ovarian) | TGI (BT-549 breast) | TGI (MDA-MB-435) | TGI (SF-295 CNS) | TGI (HT29 colon) | TGI (786-0 renal) | TGI (CAKI-1 renal) | TGI (A498 renal) | TGI (MOLT-4 leukemia) | TGI (HOP-62 NSCLC) | TGI (OVCAR-8 ovarian) | TGI (DU-145 prostate) | TGI (HCT-15 colon) | TGI (LOX IMVI melanoma) | TGI (HL-60(TB) leukemia) | TGI (RXF 393 renal) | TGI (SF-539 CNS) | TGI (OVCAR-5 ovarian) | TGI (A549 NSCLC) | TGI (EKVX NSCLC) | TGI (SK-MEL-5 melanoma)

Source: PubChem BioAssay (NCI)
